Test results taken from patent US9000191B2, “Serotonin reuptake inhibitors” (Theravance Biopharma R&D IP, LLC, priority 2010, dated 2015).

Tests used:
[1] = Peripheral selectivity (Assay 4): free plasma versus free brain exposure after oral dosing; assay type: in vivo; settings: fed male Sprague-Dawley rats, 0.5-24 hours post-dose, unbound fractions by equilibrium dialysis
Procedure: Fed male Sprague-Dawley rats (n=1/timepoint) were dosed orally with a test compound. Blood (via cardiocentesis), cerebrospinal fluid (CSF) (via cisternae magna) and brain were collected from an animal at 0.5, 1, 2, 4, 8 and 24 hours post-dose. Total plasma, CSF and brain concentrations were determined by LC-MS/MS. The pharmacokinetic parameters were assessed by non-compartmental methods using WinNonlin (Version 5.3, Pharsight, Mountain View, Calif.). The unbound fraction in plasma and brain was determined by equilibrium dialysis. Free plasma and free brain concentrations were determined by multiplying the total concentration in plasma or brain by its respective unbound fraction. CSF was assumed to be unbound, due to the absence of protein. Peripheral selectivity was assessed by comparing the unbound exposures (Cmax and AUC) in free plasma versus CSF and/or free brain.

hSERT = molecular target: T1, hSERT (Homo sapiens, UniProt P31645); assay: hSERT neurotransmitter uptake assay; assay type: cell-based; settings: serotonin reuptake inhibition, HEK293-hSERT cells; read-out: SERT pIC50 (converted)
T1 construct: expressed in transfected cells; host or cells: HEK293 (stably transfected, G418 selection)
T1 sequence (P31645 whole entry): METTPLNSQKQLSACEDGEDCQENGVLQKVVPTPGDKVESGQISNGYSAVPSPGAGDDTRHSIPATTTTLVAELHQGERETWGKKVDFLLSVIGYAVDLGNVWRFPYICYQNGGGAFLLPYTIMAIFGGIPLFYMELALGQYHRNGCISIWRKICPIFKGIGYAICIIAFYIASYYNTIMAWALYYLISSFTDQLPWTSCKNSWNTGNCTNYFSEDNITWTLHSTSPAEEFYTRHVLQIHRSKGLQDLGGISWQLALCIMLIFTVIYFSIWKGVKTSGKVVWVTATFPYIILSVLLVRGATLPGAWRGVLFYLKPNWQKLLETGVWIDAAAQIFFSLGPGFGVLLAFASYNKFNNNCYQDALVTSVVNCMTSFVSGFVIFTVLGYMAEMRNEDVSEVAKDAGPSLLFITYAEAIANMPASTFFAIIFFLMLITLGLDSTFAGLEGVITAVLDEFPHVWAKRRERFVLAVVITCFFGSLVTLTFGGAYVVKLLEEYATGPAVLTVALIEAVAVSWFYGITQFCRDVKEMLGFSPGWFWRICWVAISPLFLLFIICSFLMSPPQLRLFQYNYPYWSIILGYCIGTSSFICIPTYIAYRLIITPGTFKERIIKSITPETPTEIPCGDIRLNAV
Procedure: Neurotransmitter uptake assays were used to measure inhibition of ^3H-serotonin (^3H-5-HT) uptake into cells expressing hSERT in order to determine the pIC50 values of test compounds at the transporter, similar to the procedures described in Tsuruda et al. (2010) Journal of Pharmacological and Toxicological Methods 61(2):192-204.
HEK293 cells stably-transfected with human recombinant SERT (HEK293-hSERT) were grown in DMEM medium supplemented with 10% dialyzed fetal bovine serum, 100 μg/ml penicillin, 100 μg/ml streptomycin, 2 mM L-glutamine, and 250 μg/ml of the aminoglycoside antibiotic G418. Cells were incubated in a 5% CO2, humidified incubator at 37° C.
The neurotransmitter uptake assay was performed in a 96-well assay plate in a total volume of 100 μL assay buffer containing HEK293-hSERT cells (7500-10,000 cells/well; plated ˜2 hours prior to assay initiation. Neurotransmitter Transporter Uptake Assay dye (0.5 μM), and eleven different concentrations of compound ranging from 10 μM to […] was used. Non-specific uptake was determined in the presence of indatraline (2.5 μM). The final assay buffer was 12.5 mM Tris-HCl, 5 mM HEPES, 3 mM NaHCO3, 0.3 mM KH2PO4, 0.25 mM Na2HPO4, 130 mM NaCl, 5 mM KCl, 1 mM CaCl2, 0.4 mM MgCl2, 0.3 mM MgSO4, 4 mM D-glucose, 0.025% BSA, 0.1 mM ascorbic acid, pH 7.4.
In pre-incubation studies, test compound was added to cells for 30 minutes at 37° C. prior to the addition of fluorescent substrate. For determination of inhibitory potency, a 10-30 minute endpoint substrate accumulation was determined by fluorescence spectroscopy using a Safire (Tecan Group Ltd., Minnendorf, Switzerland) and analysis was performed as described in Tsuruda et al., supra. For real-time measurements, compounds were either preincubated (as above) or mixed with substrate prior to addition, and kinetic measurements, relative fluorescence units (RFU integrated over 0.5 ms), were made using a cycle time of 1 min.

| Compound | Free plasma AUC/Free brain AUC [1] | IC50 (hSERT) |
| --- | --- | --- |
| CS(=O)(=O)C[C@@H](Oc1ccc(C(F)(F)F)cn1)[C@@H]1CCNC1 [Example 3] | >20 | ≤ 100 nM |
| CS(=O)(=O)C[C@@H](Oc1ccc([N+](=O)[O-])cc1)[C@@H]1CCNC1 [Example 2-7, (R)-3-[(S)-2-Methanesulfonyl-1-(4-nitro-phenoxy)ethyl]pyrrolidine] | >20 | ≤ 100 nM |
| COc1cc([N+](=O)[O-])ccc1O[C@H](CS(C)(=O)=O)[C@@H]1CCNC1 [Example 2-26, (R)-3-[(S)-2-Methanesulfonyl-1-(2-methoxy-4-nitrophenoxy)ethyl]pyrrolidine] |  | ≤ 100 nM |
| CS(=O)(=O)C[C@H](Oc1ccc(C(F)(F)F)cc1)[C@H]1CCNC1 [Example 2-1, (S)-3-[(R)-2-Methanesulfonyl-1-(4-trifluoromethylphenoxy)ethyl]pyrrolidine] |  | ≤ 10 nM |
| CS(=O)(=O)C[C@@H](Oc1ccc(Cl)nc1)[C@H]1CCNC1 [Example 6-3, 2-Chloro-5-((S)-2-methanesulfonyl-1-(S)-pyrrolidin-3-ylethoxy)pyridine] |  | ≤ 100 nM |
| CS(=O)(=O)C[C@@H](Oc1ccc(C(F)(F)F)nc1)[C@@H]1CCNC1 [Example 5] |  | ≤ 100 nM |
| CS(=O)(=O)C[C@H](Oc1ccc([N+](=O)[O-])cc1)[C@H]1CCNC1 [Example 2-6, (S)-3-[(R)-2-Methanesulfonyl-1-(4-nitro-phenoxy)ethyl]pyrrolidine] |  | ≤ 100 nM |
| CS(=O)(=O)C[C@H](Oc1ccc([N+](=O)[O-])cc1)[C@@H]1CCNC1 [Example 2-8, (R)-3-[(R)-2-Methanesulfonyl-1-(4-nitro-phenoxy)ethyl]pyrrolidine] | >10 | ≤ 100 nM |
| O=S(=O)(C[C@@H](Oc1ccc(C(F)(F)F)cc1)[C@H]1CCNC1)c1ccncc1 [Example 2-19, 4-[(S)-2-(S)-Pyrrolidin-3-yl-2-(4-trifluoromethylphenoxy)ethanesulfonyl]pyridine] |  | ≤ 100 nM |
| O=S(=O)(CCO)C[C@@H](Oc1ccc(C(F)(F)F)cc1)[C@H]1CCNC1 [Example 2-15, 2-[(S)-2-(S)-Pyrrolidin-3-yl-2-(4-trifluoromethylphenoxy)ethanesulfonyl]ethanol] |  | ≤ 10 nM |
| CCS(=O)(=O)C[C@@H](Oc1ccc(C(F)(F)F)cc1)[C@H]1CCNC1 [Example 2-12, (S)-3-[(S)-2-Ethanesulfonyl-1-(4-trifluoromethyl-phenoxy)ethyl]pyrrolidine] |  | ≤ 10 nM |
| CS(=O)(=O)C[C@@H](Oc1ccc(OC(F)(F)F)cc1)[C@@H]1CCNC1 [Example 2-11, (R)-3-[(S)-2-Methanesulfonyl-1-(4-trifluoromethoxyphenoxy)ethyl]pyrrolidine] |  | ≤ 10 nM |
| CS(=O)(=O)C[C@@H](Oc1ccc(C(F)(F)F)cc1)[C@H]1CCNC1 [Example 1, (S)-3-[(S)-2-Methanesulfonyl-1-(4-trifluoromethylphenoxy)ethyl]pyrrolidine] | >70 | ≤ 10 nM |
| CS(=O)(=O)C[C@@H](Oc1ccc(OC(F)(F)F)cc1)[C@H]1CCNC1 [Example 2-9, (S)-3-[(S)-2-Methanesulfonyl-1-(4-trifluoromethoxyphenoxy)ethyl]pyrrolidine] |  | ≤ 100 nM |
| CS(=O)(=O)C[C@H](Oc1ccc(Cl)nc1)[C@H]1CCNC1 (stereo in doubt) [Example 6-4, 2-Chloro-5-((S)-2-methanesulfonyl-1-(R)-pyrrolidin-3-ylethoxy)pyridine] |  | ≤ 100 nM |
| CS(=O)(=O)C[C@@H](Oc1ccc(Cl)c(C#N)c1)[C@H]1CCNC1 [Example 2-22, 2-Chloro-5-((S)-2-methanesulfonyl-1-(S)-pyrrolidin-3-ylethoxy)benzonitrile] |  | ≤ 10 nM |
| CS(=O)(=O)C[C@H](Oc1ccc(Cl)c(C#N)c1)[C@H]1CCNC1 (stereo in doubt) [Example 2-24, 2-Chloro-5-((S)-2-methanesulfonyl-1-(R)-pyrrolidin-3-ylethoxy)benzonitrile] |  | ≤ 10 nM |
| COC(=O)CS(=O)(=O)C[C@@H](Oc1ccc(C(F)(F)F)cc1)[C@H]1CCNC1 [Example 2-16, [(S)-(S)-Pyrrolidin-3-yl-(4-trifluoromethylphenoxy)ethanesulfonyl]acetic acid methyl ester] |  | ≤ 10 nM |
| CC(C)S(=O)(=O)C[C@@H](Oc1ccc(C(F)(F)F)cc1)[C@H]1CCNC1 [Example 2-13, (S)-3-[(S)-2-(Propane-2-sulfonyl)-1-(4-trifluoromethylphenoxy)ethyl]pyrrolidine] |  | ≤ 10 nM |

Continued, values first:

| Free plasma AUC/Free brain AUC [1] | IC50 (hSERT) | Compound |
| --- | --- | --- |
|  | ≤ 100 nM | CS(=O)(=O)CCC(Oc1ccc(C(F)(F)F)cc1)[C@H]1CCNC1 (single isomer, unassigned) [Example 8-3] |
|  | ≤ 10 nM | CS(=O)(=O)C[C@@H](Oc1ccc(C(F)(F)F)cn1)[C@H]1CCNC1 [Example 4-3, 2-((S)-2-Methanesulfonyl-1-(S)-pyrrolidin-3-yl-ethoxy)-5-trifluoromethyl-pyridine] |
|  | ≤ 100 nM | CS(=O)(=O)C[C@H](Oc1ccc(Cl)cn1)[C@H]1CCNC1 (stereo in doubt) [Example 4-2, 5-Chloro-2-((S)-2-methanesulfonyl-1-(R)-pyrrolidin-3-ylethoxy)pyridine] |
|  | ≤ 10 nM | CC(C)S(=O)(=O)CCC(Oc1ccc(C(F)(F)F)cc1)[C@H]1CCNC1 (single isomer, unassigned) [Example 8-5] |
|  | ≤ 100 nM | CS(=O)(=O)C[C@@H](Oc1ccc(C(F)(F)F)nc1)[C@H]1CCNC1 [Example 6-2, 5-((S)-2-Methanesulfonyl-1-(S)-pyrrolidin-3-ylethoxy)-2-trifluoromethylpyridine] |
|  | ≤ 100 nM | CS(=O)(=O)C[C@@H](Oc1ccc(Cl)cn1)[C@H]1CCNC1 [Example 4-1, 5-Chloro-2-((S)-2-methanesulfonyl-1-(S)-pyrrolidin-3-ylethoxy)pyridine] |
